Assay results reported in patent publication US10092566B2, “Composition for controlling a gut immunity and use thereof” (SEOUL NATIONAL UNIVERSITY R&DB FOUNDATION, priority 2013, dated 2018).

Assays:
[1] = tested on: E. carotovora-pyrE::Tn5; test: Gut infection and survival analysis; type: in vivo, Erwinia carotovora; conditions: coingestion of 1 nM uracil with E. carotovora-pyrE::Tn5
Source text: During the late exponential phase, different bacteria (E. carotovora, E. carotovora-pyrE::Tn5, E. carotovora-pyrE::Tn5-pyrE, E. carotovora-guaA::Tn5, and E. carotovora-purC::Tn5) were obtained by the centrifugation, and the pellets were washed with PBS and suspended in a 5% sucrose solution. Without a hunger stage, to continuously provide Drosophila with bacteria while being infected, male adult Drosophila (5 to 6 days old) were moved to the bottle with filter paper soaked with a 5% sucrose solution containing different bacteria. The filter paper was changed every day. During the recovery experiment, the coingestion of E. carotovora-pyrE::Tn5 (+uracil) and 1 nM of uracil or the expression of an E. carotovora-pyrE::Tn5 strain, which was genetically recovered by the expression of functional pyrE genes (+pyrE), was utilized.

[2] = tested on: DUOX2; test: ROS measurement in human epithelial cells (Caco-2, NHNE; DCF-DA); type: cell-based; conditions: uracil 50 nM, 15 minutes; Caco-2 and normal human nasal epithelial cells
Source text: Human middle turbinated bone specimens were obtained from healthy volunteers after the research proposal was approved by Yonsei University College of Medicine Audit Committee. The culture system used for normal human nasal epithelial (NHNE) cells is disclosed in the previous research (Yoon et al., Am J Respir Cell Mol Biol 16, pp. 724-731, 1997; Yoon et al., Ann Otol Rhinol Laryngol 109, pp. 594-601, 2000). Briefly speaking, two passages of NHNE cells (1×10^5 cells/culture) were inoculated into a Transwell-transparent culturing insert characterized by 24.5 mm and 0.45 μm pore sizes (Costar Co., Corning, N.Y., USA) containing 0.5 mL of culturing media. The cells were cultured in a 1:1 mixture containing basic epithelium growth media including all additives disclosed in the previous research (Yoon et al., Ann Otol Rhinol Laryngol 109, pp. 594-601, 2000) and Dulbecco' s Modified Eagle Medium (DMEM). […]
After stimulating NHNE cells or Caco-2 cells, the cells were washed with Hanks' balanced salt solution (HBSS), were placed in Krebs-Ringer solution containing 5 μM of 2′,7′-dichlorofluorescin diacetate (DCF-DA; Molecular Probes, Eugene Oreg., USA), and cultured in darkness for 10 minutes. […] Fluorescence was measured at an excitation wavelength of 488 nm and an emission wavelength ranging from 515 nm to 540 nm. […]

[3] = tested on: DUOX; test: DUOX expression by qPCR; type: in vivo, Drosophila; conditions: uracil 20 nM
Procedure: Fluorescent RT-PCR was conducted to quantify gene expression and double-stranded DNA dye and SYBR green (Perkin Elmer, Waltham, Mass., USA) were used. To detect target gene trascriptomes, Cecropin (Sense, 5′-ATGAACTTCTACAACATCTTCG-3′ (SEQ ID NO: 5); Antisense, 5′-GGCAGTTGCGGCGACATTGGCG-3′ (SEQ ID NO: 6)), Diptericin (Sense, 5′-GGCTTATCCGATGCCCGACG-3′ (SEQ ID NO: 7); Antisense, 5′-TCTGTAGGTGTAGGTGCTTCCC-3′ (SEQ ID NO: 8)), and DUOX (Sense, 5′-GCTGCACGCCAACCACAAGAGACT-3′ (SEQ ID NO: 9); Antisense, 5′-CACGCGCAGCAGGATGTAAGGTTT-3′ (SEQ ID NO: 10)) were used, and as a control group, Rp49 (Sense, 5′-AGATCGTGAAGAAGCGCACCAAG-3′ (SEQ ID NO: 11); Antisense, 5′-CACCAGGAACTTCTTGAATCCGG-3′ (SEQ ID NO: 12)) was used. SYBR green analysis was conducted by an ABI PRISM 7700 system (PE Applied Biosystems, Foster City, Calif., USA) according to the manufacturer's instructions. All of the samples were repeated three times and analyzed, and a detected amount of mRNA was normalized with mRNA in the control group. Normalized data was used to quantify the relative amount of mRNA according to cycling threshold analysis. Targeted gene expression was expressed as the relative amount of expression.

SMILES: O=c1cc[nH]c(=O)[nH]1 [uracil]
- host survival rate after URA− pathogen infection [1]: sufficient to restore the host survival rate
- DUOX-dependent ROS generation in human mucosal epithelial cells [2]: able to activate DUOX-dependent ROS generation
- DUOX gene induction [3]: DUOX gene induction
